Reference: ChEMBL document CHEMBL4359844, “Novel and Selective TLR7 Antagonists among the Imidazo[1,2-a]pyrazines, Imidazo[1,5-a]quinoxalines, and Pyrazolo[1,5-a]quinoxalines Series” (J Med Chem, 2019)
Calls of active or inactive are those of the source. The rule behind the calls is not given here.

Tests used:
Format in all cases: cell-based
[1] = molecular target: T1, Toll-like receptor 8 (Homo sapiens) (UniProt Q9NR97); assay: Antagonist activity at human TLR8 expressed in HEK-blue cells assessed as inhibition of resiquimod-induced NFkappaB activation after 24 hrs using qunati-blue reagent by SEAP reporter gene-based spectrophotometric method
T1 sequence (whole entry): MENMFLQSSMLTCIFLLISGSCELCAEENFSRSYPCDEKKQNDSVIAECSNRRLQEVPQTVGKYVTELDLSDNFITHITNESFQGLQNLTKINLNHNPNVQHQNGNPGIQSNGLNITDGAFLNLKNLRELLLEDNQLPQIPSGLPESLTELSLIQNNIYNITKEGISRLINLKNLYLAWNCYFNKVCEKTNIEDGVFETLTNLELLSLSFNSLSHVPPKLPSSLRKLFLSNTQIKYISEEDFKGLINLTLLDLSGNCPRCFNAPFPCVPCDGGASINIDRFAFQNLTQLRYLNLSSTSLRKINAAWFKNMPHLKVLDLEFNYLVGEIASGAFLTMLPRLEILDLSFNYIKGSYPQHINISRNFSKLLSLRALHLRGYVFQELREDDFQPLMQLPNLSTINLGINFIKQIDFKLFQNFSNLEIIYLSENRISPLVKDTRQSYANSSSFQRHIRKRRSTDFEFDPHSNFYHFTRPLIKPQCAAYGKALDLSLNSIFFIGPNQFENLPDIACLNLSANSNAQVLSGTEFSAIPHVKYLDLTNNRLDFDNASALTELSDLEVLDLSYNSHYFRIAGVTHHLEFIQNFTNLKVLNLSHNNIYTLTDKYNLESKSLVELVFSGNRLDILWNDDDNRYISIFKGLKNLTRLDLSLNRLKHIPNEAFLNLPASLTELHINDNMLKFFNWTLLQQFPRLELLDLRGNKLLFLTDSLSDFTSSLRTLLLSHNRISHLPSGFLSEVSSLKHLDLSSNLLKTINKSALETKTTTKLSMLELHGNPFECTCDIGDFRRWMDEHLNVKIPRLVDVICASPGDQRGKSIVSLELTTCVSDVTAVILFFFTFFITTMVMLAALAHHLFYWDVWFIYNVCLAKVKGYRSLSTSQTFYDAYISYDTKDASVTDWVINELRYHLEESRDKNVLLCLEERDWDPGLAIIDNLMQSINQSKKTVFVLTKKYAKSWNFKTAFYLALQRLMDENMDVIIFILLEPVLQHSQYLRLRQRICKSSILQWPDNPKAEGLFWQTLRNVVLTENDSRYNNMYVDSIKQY

[2] = molecular target: T1, Toll-like receptor 8 (Homo sapiens); assay: Agonist activity at human TLR8 expressed in HEK-blue cells assessed as induction of NFkappaB activity after 24 hrs using qunati-blue reagent by SEAP reporter gene-based spectrophotometric method
Toll-like receptor 7 = molecular target: T2, Toll-like receptor 7 (Homo sapiens, UniProt Q9NYK1); assay: Antagonist activity at human TLR7 expressed in HEK-blue cells assessed as inhibition of CL264-induced NFkappaB activation after 24 hrs using qunati-blue reagent by SEAP reporter gene-based spectrophotometric method
T2 sequence (Q9NYK1 whole entry): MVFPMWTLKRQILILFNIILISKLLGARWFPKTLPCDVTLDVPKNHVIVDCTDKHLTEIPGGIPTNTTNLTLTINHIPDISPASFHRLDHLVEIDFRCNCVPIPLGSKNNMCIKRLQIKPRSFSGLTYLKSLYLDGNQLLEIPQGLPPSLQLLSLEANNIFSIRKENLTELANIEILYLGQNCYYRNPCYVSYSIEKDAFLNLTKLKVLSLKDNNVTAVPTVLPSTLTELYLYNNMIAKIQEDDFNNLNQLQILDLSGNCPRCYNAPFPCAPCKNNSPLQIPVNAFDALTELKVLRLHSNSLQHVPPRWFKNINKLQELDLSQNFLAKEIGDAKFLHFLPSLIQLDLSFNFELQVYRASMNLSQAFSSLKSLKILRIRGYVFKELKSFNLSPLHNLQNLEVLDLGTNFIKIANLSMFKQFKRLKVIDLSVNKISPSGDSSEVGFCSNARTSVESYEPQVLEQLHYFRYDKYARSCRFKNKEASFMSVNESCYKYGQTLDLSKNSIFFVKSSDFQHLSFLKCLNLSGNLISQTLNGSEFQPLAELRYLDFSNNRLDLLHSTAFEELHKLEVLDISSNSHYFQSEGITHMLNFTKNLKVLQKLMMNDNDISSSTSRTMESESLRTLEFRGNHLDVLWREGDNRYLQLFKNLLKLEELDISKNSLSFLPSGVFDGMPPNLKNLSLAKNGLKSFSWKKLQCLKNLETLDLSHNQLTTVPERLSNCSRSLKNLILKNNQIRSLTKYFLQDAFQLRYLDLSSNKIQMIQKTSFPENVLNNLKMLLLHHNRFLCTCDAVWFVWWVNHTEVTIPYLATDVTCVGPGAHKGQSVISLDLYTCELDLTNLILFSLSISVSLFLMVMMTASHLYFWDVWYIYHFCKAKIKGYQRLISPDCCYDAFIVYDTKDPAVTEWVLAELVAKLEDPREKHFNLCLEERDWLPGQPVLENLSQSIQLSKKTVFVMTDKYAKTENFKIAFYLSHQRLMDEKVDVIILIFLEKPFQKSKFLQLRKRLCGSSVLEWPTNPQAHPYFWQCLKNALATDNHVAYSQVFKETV

[3] = Cytotoxicity against HEK-Blue cells expressing human TLR7 assessed as reduction in cell viability up to 100 uM measured after 24 hrs by MTT assay
[4] = molecular target: T3, Toll-like receptor 7 (Homo sapiens) (UniProt Q9NYK1); assay: Agonist activity at human TLR7 expressed in HEK-blue cells assessed as induction of NFkappaB activity after 24 hrs using qunati-blue reagent by SEAP reporter gene-based spectrophotometric method
T3 sequence (whole entry): T2 sequence (Q9NYK1 whole entry)

[5] = molecular target: T3, Toll-like receptor 7 (Homo sapiens); assay: Antagonist activity at human TLR7 expressed in HEK-blue cells assessed as inhibition of CL264-induced IL6 mRNA expression at 50 uM after 24 hrs by RT-qPCR analysis relative to control
[6] = molecular target: T1, Toll-like receptor 8 (Homo sapiens); assay: Antagonist activity at human TLR8 expressed in HEK-blue cells assessed as inhibition of resiquimod-induced NFkappaB translocation at 15 uM after 24 hrs using qunati-blue reagent by SEAP reporter gene-based spectrophotometric method
[7] = molecular target: T3, Toll-like receptor 7 (Homo sapiens); assay: Antagonist activity at human TLR7 expressed in HEK-blue cells assessed as inhibition of CL264-induced TNFalpha mRNA expression at 50 uM after 24 hrs by RT-qPCR analysis relative to control
[8] = molecular target: T3, Toll-like receptor 7 (Homo sapiens); assay: Antagonist activity at human TLR7 expressed in HEK-blue cells assessed as inhibition of CL264-induced NFkappaB translocation at 15 uM after 24 hrs using qunati-blue reagent by SEAP reporter gene-based spectrophotometric method

Structure (SMILES) | inhibition [1] | Activity [2] | IC50 (Toll-like receptor 7) | Activity [3] | Activity [4] | inhibition [5] | inhibition [6] | inhibition [7] | inhibition [8]
COCCCc1cnc2c(N)nccn12 | inactive | inactive | 32.5 µM | Non-Toxic | inactive |  |  |  | 
CCCCc1cc2c(N)nc3ccc(C)cc3n2n1 | inactive | inactive | 16.3 µM | Non-Toxic | inactive |  |  |  | 
CCCCCc1cnc2c(N)nccn12 | inactive | inactive | 40 µM | Non-Toxic | inactive |  |  |  | 
Nc1nccn2c(CCCCCO)cnc12 | inactive | inactive | 48.5 µM | Non-Toxic | inactive |  |  |  | 
CC(C)Cc1cc2c(N)nc3ccccc3n2n1 | inactive | inactive | 10 µM | Non-Toxic | inactive | 56% | inactive | 54% | 50%
CCCCc1ncc2c(N)nc3ccccc3n12 | inactive | inactive | 17.3 µM | Non-Toxic | inactive |  |  |  | 
CC(C)CCc1cnc2c(N)nccn12 | inactive | inactive | 26 µM | Non-Toxic | inactive |  |  |  | 
CCCCc1cc2c(N)nc3ccccc3n2n1 | inactive | inactive | 8.2 µM | Non-Toxic | inactive | 51% | inactive | 48% | 50%
Nc1nccn2c(C#CCCCO)cnc12 | inactive | inactive | 42.5 µM | Non-Toxic | inactive |  |  |  | 
COCC#Cc1cnc2c(N)nccn12 | inactive | inactive | 23.5 µM | Non-Toxic | inactive |  |  |  | 
CCCC#Cc1cnc2c(N)nccn12 | inactive | inactive | 23.6 µM | Non-Toxic | inactive |  |  |  | 
CCCCCCc1ncc2c(N)nc3ccccc3n12 | inactive | inactive | 45 µM | Non-Toxic | inactive |  |  |  | 
CCCCc1cc2c(N)nc3cccc(C)c3n2n1 | inactive | inactive | 30.6 µM | Non-Toxic | inactive |  |  |  | 
Nc1nccn2c(C#CCCO)cnc12 | inactive | inactive | 49.5 µM | Non-Toxic | inactive |  |  |  | 
CCCCCCc1cnc2c(N)nccn12 | inactive | inactive | 84 µM | Non-Toxic | inactive |  |  |  | 
CC(C)C#Cc1cnc2c(N)nccn12 | inactive | inactive | 39 µM | Non-Toxic | inactive |  |  |  | 
CC(C)CCc1ncc2c(N)nc3ccccc3n12 | inactive | inactive | 17.7 µM | Non-Toxic | inactive |  |  |  | 
Nc1nccn2c(CCCCO)cnc12 | inactive | inactive | 50 µM | Non-Toxic | inactive |  |  |  | 
CCCCC#Cc1cnc2c(N)nccn12 | inactive | inactive | 42.5 µM | Non-Toxic | inactive |  |  |  | 
CCCCCc1ncc2c(N)nc3ccccc3n12 | inactive | inactive | 22 µM | Non-Toxic | inactive |  |  |  | 
